{"source": "paper PMC4026528", "about": "(PLoS ONE, 2014)", "key": {"[1]": {"tested_on": "Axin1 and β-catenin in G292 osteosarcoma cells", "assay": "Western blotting in G292", "assay_type": "cell-based, human"}, "[2]": {"tested_on": "Myc transcriptional activation in HEK293 cells", "assay": "Nucleolin promoter (pNucL14) luciferase reporter, HEK293", "assay_type": "cell-based", "details": "HEK293, pNucL14 ± FLAG-c-Myc", "text": "(§1) The generation of TCF-Luciferase and TA-Renilla reporter plasmids as well as IC50 determination and calculation was reported previously. Human AXIN1 and WNT3A cDNAs were purchased from Origene as “transfection ready” plasmids. Dominant negative TCF4 cDNA was purchased from Upstate. Luciferase reporter of the nucleolin promoter (pNucL14) and FLAG-c-Myc expressing vector were from B. Amati. Luciferase reporter of the Hes5 promoter and Notch1-IC expressing vector were from I. Screpanti. Lentiviral vectors for inducible dominant negative TCF4 (rLV-EF1-tTS, rLV-EF1-rtTA and rLV-TRE-CMV-HA-TCF4DN) were purchased from Vectalys.\n(§2) Transfections were carried out using Lipofectamine 2000 (Invitrogen) according to the manufacturer’s instructions. Lentiviral expression of TCF-Luc, TA-Renilla, and the inducible dominant negative TCF4, were carried out following Vectalys instructions. For reporter assays, luciferase activities were performed as described previously."}, "[3]": {"tested_on": "U2OS (osteosarcoma) cells", "assay": "Soft agar assay (anchorage-independent growth), U2OS", "assay_type": "cell-based, human", "method": "(§3) Soft agar assay and analysis was carried out as previously described. For scratch assay, confluent monolayer of U2OS and HT-1080 cells were subjected to scratch using a sterile pipette tip. Wounded monolayers were washed to remove debris and incubated with SEN461 at different concentrations for 20 hours. After the incubation period, images were taken under an Axiovert 200M (Zeiss) microscope equipped with a CCD camera, and the gap width was measured using MetaMorph 6.3 software (Universal Imaging Corp.) to calculate the area covered by cells (pixels unit). The tube formation assay was performed using growth factor-reduced Matrigel from BD (BD Biosciences; San Jose, CA, USA). Matrigel was thawed overnight at 4°C and was diluted (1∶1) with phenol red-free DMEM without serum. 100 µl of the diluted matrigel was used to coat the wells of a 96 well plate and was allowed to polymerize for 2 hours at 37°C. After equilibrating the gel with the complete growth medium, 15×10^3 cells were seeded in each well and incubated for 20 hours. The tube formation was monitored under a phase contrast microscope (Axiovert 200, Zeiss) and imaged using MetaMorph system (Universal Imaging Corp)."}, "[4]": {"tested_on": "Axin1, TNKS1/2, c-Myc protein in U2OS cells", "method": "Total, nuclear and cytosolic cells lysates were prepared as described previously. Commercial antibodies used in this study include anti-Axin1, anti-β-catenin, anti-P-β−catenin Ser33/Ser37/Thr41 and anti-HA from Cell Signaling Technologies, anti-p21 (Santa Cruz), anti-tankyrases (Abcam), anti-Tubulin and anti-c-Myc from Calbiochem, anti-GAPDH and anti-β-actin (Sigma). For co-localization experiments, U2OS cells were plated directly on coverslips coated with Fibronectin (Invitrogen). After transfections and incubation treatment of 24 h, cells were washed once with 1X PBS and then fixed with 4% paraformaldehyde for 15 min. After three washes in PBS, cells were permeabilized with 0.1% Triton X-100 for 10 min and washed three times with TBS (Bio-Rad). […] After 24 h, cells were washed three times with TBS and incubated for 1 h with the following secondary antibody Alexa Fluor 546-conjugated goat anti-rabbit IgG (Invitrogen, 1∶1000). Finally, coverslips were mounted onto glass slides using Prolong Gold Antifade reagent with DAPI (Invitrogen). Cells were examined under laser confocal fluorescence microscope with plan-apochromate 40x and 63x/1.4 oil-immersion objective (LSM 510 Meta, Axiovert 200, Zeiss). Co-localization experiments were performed in triplicate, and data/images presented are the average of at least 10 random fields for each independent experiment."}, "[5]": {"tested_on": "Wnt target gene mRNA in HT-1080 cells", "assay": "Quantitative RT-PCR of Wnt target genes in HT-1080", "assay_type": "cell-based, human", "details": "HT-1080, overnight, 10 µmol/L", "method": "(§4) RNA extraction and quantitative RT-PCR (qPCR) expression analysis was performed as described previously. Gene expression analysis was performed using the human housekeeping gene RPL13A. Primers for the hAXIN2, hCDC25A, hc-MYC, hFZD4, hDVL2, hCSNK1G and hVEGF-A were the following: Fw: 5′-CAAGGGCCAGGTCACCAA-3′ Rv: 5′-CCCCCAACCCATCTTCGT-3′; Fw: 5′-[…]-3′ Rv: 5′-[…]-3′; Fw: 5′-GGCTCCTGGCAAAAGGTCA-3′ Rv: 5′-[…]-3′; Fw: 5′-[…]-3′ Rv: 5′-[…]-3′; Fw: 5′-[…]-3′ Rv: 5′-GTCTCCCCGCTCATTGCTC-3′; Fw: 5′-[…]-3′ Rv: 5′-[…]-3′; Fw: 5′-[…]-3′ Rv: 5′-[…]-3′."}, "U2OS cells": {"tested_on": "U2OS cells", "assay": "Scratch assay (motility), U2OS", "assay_type": "cell-based, human", "details": "20 hours", "method": "as §3"}, "[6]": {"tested_on": "Wnt target gene mRNA in U2OS cells", "assay": "Quantitative RT-PCR of Wnt target genes in U2OS", "assay_type": "cell-based, human", "method": "as §4"}, "[7]": {"tested_on": "HT-1080 (fibrosarcoma) cells", "assay": "Soft agar assay (anchorage-independent growth), HT-1080", "assay_type": "cell-based, human", "method": "as §3"}, "[8]": {"tested_on": "Wnt transcriptional activity in HT-1080 cells", "assay": "TCF Wnt reporter assay in HT-1080", "assay_type": "cell-based, human", "details": "HT-1080, data not shown", "text": "as §1, §2"}}, "data": [{"compound": "COCC(=O)N1CCN(C(=O)C2CCC(Cn3c(=O)c4cc(OC)ccc4n(C)c3=O)CC2)CC1", "note": "(stereo not drawn) [SEN461]", "values": [{"measurement": "Axin protein level", "setting": "[1]", "result": "Axin stabilization"}, {"measurement": "β-catenin level", "setting": "[1]", "result": "β-catenin down-modulation"}, {"measurement": "Myc mediated activation / basal activity of nucleolin reporter", "setting": "[2]", "result": "did not affect"}, {"measurement": "IC50", "setting": "[3]", "result": 300, "unit": "nM"}, {"measurement": "tankyrases (TNKS1 and TNKS2) protein level", "setting": "[4]; only at the highest concentration", "result": "very slight stabilization"}, {"measurement": "c-Myc protein level", "setting": "[4]; overnight", "result": "No effect"}, {"measurement": "Axin1 protein level", "setting": "[4]; overnight, cytoplasmic lysates", "result": "concentration-dependent stabilization"}, {"measurement": "c-MYC mRNA", "setting": "[5]", "result": "significant down-modulation"}, {"measurement": "cellular motility (two-dimensional scratch assay)", "setting": "U2OS cells", "result": "neither U2OS nor HT-1080 cells showed inhibition of motility"}, {"measurement": "CSNK1G mRNA", "setting": "[6]; 10 µmol/L", "result": "down-modulation"}, {"measurement": "DVL2 mRNA", "setting": "[6]; 10 µmol/L", "result": "down-modulation"}, {"measurement": "FZD4 mRNA", "setting": "[6]; 10 µmol/L", "result": "down-modulation"}, {"measurement": "AXIN2 mRNA", "setting": "[6]; 10 µmol/L, 2 or 24 h", "result": "comparable down-regulation"}, {"measurement": "CDC25A mRNA", "setting": "[6]; 10 µmol/L, 2 or 24 h", "result": "comparable down-regulation"}, {"measurement": "AXIN2 mRNA induced by Wnt3a CM", "setting": "[6]; Wnt3a CM stimulation", "result": "inhibited"}, {"measurement": "c-MYC mRNA", "setting": "[6]; overnight treatment", "result": "unaffected"}, {"measurement": "IC50", "setting": "[7]", "result": 780, "unit": "nM"}, {"measurement": "Wnt transcriptional modulation (TCF reporter)", "setting": "[8]", "result": "did not find any Wnt transcriptional modulation"}]}]}
